The target of this assay is T1, CD73 (Homo sapiens, UniProt P21589).
T1 sequence (P21589 27-549): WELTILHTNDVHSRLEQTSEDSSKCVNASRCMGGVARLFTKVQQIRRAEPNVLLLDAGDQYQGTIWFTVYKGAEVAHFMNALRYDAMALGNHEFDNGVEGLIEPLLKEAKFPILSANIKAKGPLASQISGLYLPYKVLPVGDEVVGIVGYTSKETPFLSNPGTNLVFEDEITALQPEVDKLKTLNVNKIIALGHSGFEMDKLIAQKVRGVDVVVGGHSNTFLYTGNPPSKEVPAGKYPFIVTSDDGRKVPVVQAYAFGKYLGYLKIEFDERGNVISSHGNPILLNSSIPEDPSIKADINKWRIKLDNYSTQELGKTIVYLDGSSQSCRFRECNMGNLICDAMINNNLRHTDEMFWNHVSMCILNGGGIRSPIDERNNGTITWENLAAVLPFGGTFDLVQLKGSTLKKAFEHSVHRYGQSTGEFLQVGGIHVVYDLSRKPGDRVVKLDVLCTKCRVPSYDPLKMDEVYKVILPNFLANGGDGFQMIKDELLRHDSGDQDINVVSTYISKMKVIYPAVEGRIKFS
Briefly: CD73 biochemical assay, Malachite Green detection of AMP hydrolysis. As to conditions: CD73 320 pM, AMP 15 μM, Malachite Green readout. As to the method: Assay Reaction Conditions
• Assay Volume: 70 μl • Reaction Volume: 50 μl • CD73: 0.3208 nM • AMP: 15 μM • Assay Buffer: 2 5 mM Tris-HCL, pH 7.4, 0.01% Brij-35, 0.01% BSA, 5 mM MgCl2 Assay Procedure:
A clear 384 well plate was used in this assay.
Made dose titration of testing compounds in assay buffer, 10 points ½ log titrations in duplicates starting at 100 μM. Total volume for each well was 25 μl, with CD73 then added to each well for a final concentration of 320 pM. The solution was then incubated at RT for 15 min. 25 μl of AMP was added to each well for a final concentration of 15 μM, and then incubated at rt for 10 min. 10 μl of Malachite Green Reagent A was then added and allowed to incubate at rt for 10 min. 10 μl of Malachite Green Reagent B was then added and allowed to incubate at rt for 45 min. The absorbance for each sample was read on an Envision plate reader using excitation filter: Cy5 […].
The ability of the compounds disclosed herein to inhibit CD73 activity was quantified and the respective IC50 values were determined. Table 2 provides the biochemical IC50 values of compounds disclosed herein.
The term IC50 denotes the concentration needed to halve the response being measured. The compound `O=P(O)(O)C(CO)(COCc1nnn[nH]1)OC[C@H]1O[C@H](c2cnn3c(NC4CCCC4)cc(Cl)nc23)[C@H](O)[C@@H]1O` (stereo partly drawn) [Example 43, (1-((1H-tetrazol-5-yl)methoxy)-2-(((2R,3S,4R,5R)-5-(5-chloro-7-(cyclopentylamino)pyrazolo[1,5-a]pyrimidin-3-yl)-3,4-dihydroxytetrahydrofuran-2-yl)methoxy)-3-hydroxypropan-2-yl)phosphonic acid] registered an IC50 of 1 to 100 nM.

`O=c1[nH]c(COC[C@@](CO)(OC[C@H]2O[C@@H](c3ccc4c(NCC5CC5)nc(Cl)nn34)[C@H](O)[C@@H]2O)P(=O)(O)O)no1` [Example 44, ((S)-2-(((2R,3S,4R,5S)-5-(2-chloro-4-((cyclopropylmethyl)amino)pyrrolo[2,1-f][1,2,4]triazin-7-yl)-3,4-dihydroxytetrahydrofuran-2-yl)methoxy)-1-hydroxy-3-((5-oxo-4,5-dihydro-1,2,4-oxadiazol-3-yl)methoxy)propan-2-yl)phosphonic acid]: the IC50 was at most 0.5 nM.

In the case of `COC[C@](CC(=O)O)(OC[C@H]1O[C@@H](c2ccc3c(NC4CCCC4)nc(Cl)nn23)[C@H](O)[C@@H]1O)P(=O)(O)O` [Example 45, (R)-3-(((2R,3S,4R,5S)-5-(2-Chloro-4-(Cyclopentylamino)pyrrolo[2,1-f][1,2,4]triazin-7-yl)-3,4-dihydroxytetrahydrofuran-2-yl)methoxy)-4-methoxy-3-phosphonobutanoic acid], the IC50 is at most 0.5 nM.

In turn, `O=P(O)(O)[C@@](CO)(COCc1nn[nH]n1)OC[C@H]1O[C@@H](c2ccc3c(NCC4CCCC4)nc(Cl)nn23)[C@H](O)[C@@H]1O` [Example 46, ((S)-1-((2H-tetrazol-5-yl)methoxy)-2-(((2R,3S,4R,5S)-5-(2-chloro-4-((cyclopentylmethyl)amino)pyrrolo[2,1-f][1,2,4]triazin-7-yl)-3,4-dihydroxytetrahydrofuran-2-yl)methoxy)-3-hydroxypropan-2-yl)phosphonic acid] came in with an IC50 of at most 0.5 nM.

In turn, `COC[C@](OC[C@H]1O[C@@H](c2ccc3c(NC4CCCC4)nc(Cl)nn23)[C@H](O)[C@@H]1O)(C(=O)O)P(=O)(O)O` [Example 47, (R)-2-(((2R,3S,4R,5S)-5-(2-chloro-4-(cyclopentylamino)pyrrolo[2,1-f][1,2,4]triazin-7-yl)-3,4-dihydroxytetrahydrofuran-2-yl)methoxy)-3-methoxy-2-phosphonopropanoic acid] returned an IC50 of 1 to 100 nM.

On to `O=P(O)(O)[C@](CO)(COCc1nn[nH]n1)OC[C@H]1O[C@@H](c2ccc3c(NCC4CCCC4)nc(Cl)nn23)[C@H](O)[C@@H]1O` [Example 48, ((R)-1-((2H-tetrazol-5-yl)methoxy)-2-(((2R,3S,4R,5S)-5-(2-chloro-4-((cyclopentylmethyl)amino)pyrrolo[2,1-f][1,2,4]triazin-7-yl)-3,4-dihydroxytetrahydrofuran-2-yl)methoxy)-3-hydroxypropan-2-yl)phosphonic acid], for which the half-maximal inhibitory concentration (IC50) lay within 1 to 100 nM.

Turning to `O=P(O)(O)[C@@](CO)(COCc1nn[nH]n1)OC[C@H]1O[C@@H](c2ccc3c(NCC4CC4)nc(Cl)nn23)[C@H](O)[C@@H]1O` [Example 49, ((S)-1-((2H-tetrazol-5-yl)methoxy)-2-(((2R,3S,4R,5S)-5-(2-chloro-4-((cyclopropylmethyl)amino)pyrrolo[2,1-f][1,2,4]triazin-7-yl)-3,4-dihydroxytetrahydrofuran-2-yl)methoxy)-3-hydroxypropan-2-yl)phosphonic acid], the IC50 was at most 0.5 nM.

For `O=P(O)(O)[C@](CO)(COCc1nn[nH]n1)OC[C@H]1O[C@@H](c2ccc3c(NC4CCC4)nc(Cl)nn23)[C@H](O)[C@@H]1O` [Example 50, ((R)-1-((2H-tetrazol-5-yl)methoxy)-2-(((2R,3S,4R,5S)-5-(2-chloro-4-(cyclobutylamino)pyrrolo[2,1-f][1,2,4]triazin-7-yl)-3,4-dihydroxytetrahydrofuran-2-yl)methoxy)-3-hydroxypropan-2-yl)phosphonic acid], the concentration for half-maximal inhibition (IC50) fell in the range of 0.5 to 1 nM.

`O=P(O)(O)[C@@](CO)(COCc1nn[nH]n1)OC[C@H]1O[C@@H](c2ccc3c(NCC4CCC4)nc(Cl)nn23)[C@H](O)[C@@H]1O` [Example 52, ((S)-1-((2H-tetrazol-5-yl)methoxy)-2-(((2R,3S,4R,5S)-5-(2-chloro-4-((cyclobutylmethyl)amino)pyrrolo[2,1-f][1,2,4]triazin-7-yl)-3,4-dihydroxytetrahydrofuran-2-yl)methoxy)-3-hydroxypropan-2-yl)phosphonic acid]: the IC50 was at most 0.5 nM.

For the compound `O=P(O)(O)[C@](CO)(COCc1nn[nH]n1)OC[C@H]1O[C@@H](c2ccc3c(NCC4CCC4)nc(Cl)nn23)[C@H](O)[C@@H]1O` [Example 53, ((R)-1-((2H-tetrazol-5-yl)methoxy)-2-(((2R,3S,4R,5S)-5-(2-chloro-4-((cyclobutylmethyl)amino)pyrrolo[2,1-f][1,2,4]triazin-7-yl)-3,4-dihydroxytetrahydrofuran-2-yl)methoxy)-3-hydroxypropan-2-yl)phosphonic acid], the 50% inhibitory concentration (IC50) is 1 to 100 nM.

`O=P(O)(O)[C@](CO)(COCc1nn[nH]n1)OC[C@H]1O[C@@H](c2ccc3c(NCC4CC4)nc(Cl)nn23)[C@H](O)[C@@H]1O` [Example 54, ((R)-1-((2H-tetrazol-5-yl)methoxy)-2-(((2R,3S,4R,5S)-5-(2-chloro-4-((cyclopropylmethyl)amino)pyrrolo[2,1-f][1,2,4]triazin-7-yl)-3,4-dihydroxytetrahydrofuran-2-yl)methoxy)-3-hydroxypropan-2-yl)phosphonic acid] gave an IC50 of 1 to 100 nM.

In turn, `[2H]C([2H])([2H])OC[C@](COCc1nn[nH]n1)(OC[C@H]1O[C@@H](c2ccc3c(NC4CCCC4)nc(Cl)nn23)[C@H](O)[C@@H]1O)P(=O)(O)O` [Example 55, ((S)-1-((2H-tetrazol-5-yl)methoxy)-2-(((2R,3S,4R,5S)-5-(2-chloro-4-(cyclopentylamino)pyrrolo[2,1-f][1,2,4]triazin-7-yl)-3,4-dihydroxytetrahydrofuran-2-yl)methoxy)-3-(methoxy-d3)propan-2-yl)phosphonic acid] yielded an IC50 of at most 0.5 nM.

`COCC(CO)(OC[C@H]1O[C@@H](c2cnn3c(NC4CCCC4)cc(Cl)nc23)[C@H](O)[C@@H]1O)P(=O)(O)O` (stereo partly drawn) [Example 56, (2-(((2R,3S,4R,5S)-5-(5-chloro-7-(cyclopentylamino)pyrazolo[1,5-a]pyrimidin-3-yl)-3,4-dihydroxytetrahydrofuran-2-yl)methoxy)-1-hydroxy-3-methoxypropan-2-yl)phosphonic acid] came in with an IC50 of 1 to 100 nM.

`COCC(COCc1nn[nH]n1)(OC[C@H]1O[C@@H](c2cnn3c(NC4CCCC4)cc(Cl)nc23)[C@H](O)[C@@H]1O)P(=O)(O)O` (stereo partly drawn) [Example 57, (1-((2H-tetrazol-5-yl)methoxy)-2-(((2R,3S,4R,5S)-5-(5-chloro-7-(cyclopentylamino)pyrazolo[1,5-a]pyrimidin-3-yl)-3,4-dihydroxytetrahydrofuran-2-yl)methoxy)-3-methoxypropan-2-yl)phosphonic acid] gave a 50% inhibitory concentration (IC50) of at most 0.5 nM.
